Test results from patent publication US20240000750A1, “METHOD FOR PREPARING CRYSTALLINE PARTICLES OF 1-(3-CYANO-1-ISOPROPYL-INDOLE-5-YL)PYRAZOLE-4-CARBOXYLIC ACID, AND PHARMACEUTICAL COMPOSITION COMPRISING SAME” (LG CHEM, LTD., priority 2020, published 2024).

Assays:
Assay type in all cases: physicochemical
[1] = Solubility in organic solvents and water
[2] = Particle size distribution of crystalline particles, wet method, laser diffraction particle size analyzer
Experimental: The volume average particle distribution and particle size distribution of the crystalline particles prepared in Preparation Examples, Examples and Comparative Examples were measured by a wet method using a laser diffraction particle size analyzer.
It can be said that the particle size distribution is better as the values of DV10/DV50 and DV50/DV90 used as indicators are larger. Here, DV10, DV50, and DV90 mean particle diameters of particles corresponding to 10%, 50%, and 90% of the total number of particles, respectively, when the measured particles are arranged in order from smallest to largest in particle size.

[3] = Bulk density and tapped density of crystalline particles (flowability: Carr index, Hausner ratio)
Experimental: The tapped density and bulk density were analyzed to analyze flowability and cohesiveness. tapped density means the changed volume when the container is tapped after packing the powder, which means that the voids between particles are reduced. In addition, the porosity can be confirmed by checking the changes in bulk density (apparent density) and tapped density. In general, the flowability and cohesiveness of the granular powder were evaluated using Carr index (CI) (Carr, 1965) and Hausner ratio (HR) (Hausner, 1967).
The bulk density and tapped density of crystalline particles prepared according to Preparation Examples, Examples and Comparative Examples were measured. The bulk density is the volume when about 50 g of granular powder is put into the measuring cylinder, and the tapped density is the volume when there is no further change in volume after lightly tapping the measuring cylinder on the floor at a constant height 100 times. The bulk density refers to the volume occupied by a certain mass of powder, which refers to the sum of the volume of the powder and the volume of voids between particles as the total volume.
The flowability and cohesiveness of the granular powder were calculated by the Carr index of Equation (3) and the Hausner ratio of Equation (4) using the bulk density and tapped density measured above according to the method of Jinapong et al (2008). […]

| Structure (SMILES) | Solubility [1] | Particle size distribution (in words) [2] | Flowability and cohesiveness (in words) [3] |
| --- | --- | --- | --- |
| CC(C)n1cc(C#N)c2cc(-n3cc(C(=O)O)cn3)ccc21 [compound of Formula 1, 1-(3-cyano-1-isopropyl-indol-5-yl)pyrazole-4-carboxylic acid] | very low |  |  |
| CC(C)n1cc(C#N)c2cc(-n3cc(C(=O)O)cn3)ccc21 [Synthesis Example 1-4, 1-(3-cyano-1-isopropyl-indol-5-yl)pyrazole-4-carboxylic acid] |  | very good | very good |
